Like-named read-outs stand apart in the source and are kept apart here.
Legend:
Format in all cases: cell-based
[1] = system: Human Acute Myelomonocytic Leukemia HL-60; experiment: Cell proliferation experiment (Alarm blue, 72 h, EC50); settings: HL-60 cells
Outline: (§1)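 EC50 values derive from Alamar blue fluorescence measured after cells in 96-well plates were incubated 72 h with compound diluted 5-fold per step in complete medium.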

[2] = system: Human Colon Cancer HCT-116; experiment: as above; settings: Homo sapiens, HCT-116; HCT116 cells
Outline: as §1

[3] = system: Human Monocytic Leukemia MV4-11; experiment: as above; settings: Homo sapiens, MV4-11, MV4;11 cells
Outline: as §1

[4] = system: HUVEC; experiment: Cell proliferation experiment (EC50), HUVEC; settings: Homo sapiens
[5] = system: PBMC; experiment: Cell proliferation experiment (EC50), PBMC
[6] = system: Human Breast Cancer MDA-MB-231; experiment: Cell proliferation experiment (Alarm blue, 72 h, EC50); settings: Homo sapiens; MDA-MB-231 cells
Outline: as §1

[7] = system: Human Colon Cancer HT-29; experiment: as above; settings: Homo sapiens; HT-29 cells
Outline: as §1

[8] = system: Human Glioma Cells U-87 MG; experiment: as above; settings: Homo sapiens; U-87MG cells
Outline: as §1

[9] = system: Human Monocytic Leukemia THP-1; experiment: as above; settings: THP-1 cells
Outline: as §1

[10] = system: Human Ovarian Cancer SK-OV-3; experiment: as above; settings: Homo sapiens, SK-OV-3; SKO3 cells
Outline: as §1

[11] = system: Human Small Cell Lung Cancer NCI-H82; experiment: as above; settings: Homo sapiens, NCI-H82; NCIH82 cells
Outline: as §1

[12] = system: Human cervical adenocarcinoma cells Hela; experiment: as above; settings: Homo sapiens
Outline: as §1

[13] = target: T1, BRD4 (Homo sapiens, UniProt O60885); experiment: Western blot, protein degradation (DC50)
T1 construct: endogenous in cells
Outline: (§2)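 Protein loss read by ECL Western blot after compound treatment of cells; RIPA lysates run on 4%-12% SDS-PAGE, transferred to PVDF, primary antibody overnight at 4° C. Degradation derived from quantified band intensities.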

[14] = target: T2, PLK1 (Homo sapiens, UniProt P53350); experiment: Western blot, protein degradation (DC50)
T2 construct: endogenous in cells
Outline: as §2

[15] = system: Daudi; experiment: Cell proliferation experiment (EC50), Daudi; settings: Homo sapiens; Daudi cells
[16] = system: U937; experiment: Cell proliferation experiment (EC50), U937; settings: Homo sapiens, U-937; U937 cells
[17] = system: A549; experiment: Cell proliferation experiment (EC50), A549; settings: Homo sapiens; A549 cells

T2 sequence (P53350 whole entry): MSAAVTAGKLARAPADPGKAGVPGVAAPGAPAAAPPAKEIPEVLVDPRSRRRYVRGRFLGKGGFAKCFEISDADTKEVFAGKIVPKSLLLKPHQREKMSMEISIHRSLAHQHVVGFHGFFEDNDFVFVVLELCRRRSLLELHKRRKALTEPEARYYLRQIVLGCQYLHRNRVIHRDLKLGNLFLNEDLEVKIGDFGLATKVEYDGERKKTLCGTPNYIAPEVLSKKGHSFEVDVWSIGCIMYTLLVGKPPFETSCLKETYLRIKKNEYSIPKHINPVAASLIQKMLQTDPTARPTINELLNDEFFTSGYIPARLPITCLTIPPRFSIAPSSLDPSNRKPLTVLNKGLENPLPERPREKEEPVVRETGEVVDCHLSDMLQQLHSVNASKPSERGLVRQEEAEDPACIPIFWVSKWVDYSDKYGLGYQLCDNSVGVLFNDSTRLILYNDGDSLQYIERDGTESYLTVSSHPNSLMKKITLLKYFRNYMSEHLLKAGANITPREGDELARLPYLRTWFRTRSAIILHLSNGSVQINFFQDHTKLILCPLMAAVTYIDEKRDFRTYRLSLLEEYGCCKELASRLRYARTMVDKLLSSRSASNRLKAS

EC50 [1] [µM]	EC50 [2] [µM]	EC50 [3] [µM]	EC50 [6] [µM]	EC50 [7] [µM]	EC50 [8] [µM]	EC50 [9] [µM]	EC50 [10] [µM]	EC50 [11] [µM]	EC50 [12] [µM]	DC50 ([13]; 6 h, read-out: BRD4 DC50 (nM) (6 h))	DC50 ([13]; 24 h, read-out: BRD4 DC50 (nM) (24 h))	DC50 ([14]; 6 h, read-out: PLK1 DC50 (nM) (6 h))	DC50 ([14]; 24 h, read-out: PLK1 DC50 (nM) (24 h))	EC50 [15] [µM]	EC50 [16] [µM]	EC50 [17] [µM]	Structure (SMILES)	EC50 [4] [µM]	EC50 [5] [µM]
> 1	> 1	0.01 to 0.1															O=C1CCC(N2Cc3c(NC(=O)CCOCCOCCOCCNC(=O)c4ccc(Nc5ncc6c(n5)-c5ccc(Cl)cc5C(c5c(F)cccc5F)=NC6)cc4)cccc3C2=O)C(=O)N1 (stereo not shown) [UB-180535]	> 1	> 1
0.1 to 1	0.1 to 1	0.01 to 0.1	0.1 to 1	0.1 to 1	0.1 to 1	0.1 to 1	0.1 to 1	0.1 to 1	0.1 to 1	< 10	< 10	< 10	< 10	0.1 to 1	0.1 to 1	0.1 to 1	CC[C@@H]1C(=O)N(C)c2cnc(Nc3ccc(C(=O)NC4CCN(CCOCCNCC(=O)Nc5cccc6c5CN(C5CCC(=O)NC5=O)C6=O)CC4)cc3OC)nc2N1Cc1ccc(Cl)s1 (stereo partly shown) [UB-180725]		

Source: US20210369853A1, “TARGETED PROTEASE DEGRADATION PLATFORM” (EUBULUS BIOTHERAPEUTICS INC., priority 2018, published 2021)
